{"source": "patent US6713051B2", "about": "“Antiperspirant or deodorant compositions” (Unilever Home & Personal Care USA division of Conopco, Inc., priority 2001, dated 2004)", "type_in_all_cases": "cell-based", "key": {"[1]": {"tested_on": "skin organotypic cultures (Epiderm)", "test": "Viability of skin organotypic cultures (MTT assay)", "experimental": "(§1) The cultures were then incubated at 37° C., 5% CO2, and 95% relative humidity (standard cell culture conditions) for 24 h. The culture medium was assayed for the pro-inflammatory cytokine interleukin-6 (IL-6) and after washing to remove the AP formulation, the viability of the culture was determined using the Thiazoyl blue (MTT) assay (Mosmann, T. J. Immunol. Methods 65, p55 (1983). IL-6 was determined using an Immunoassay (Quantikine, R&D systems).\n(§2) In this Example, skin organotypic cultures (Epiderm™, MatTek, USA) were treated topically with the above-identified AP formulation and the trans-10-cis-12 conjugated linoleic acid (TC CLA) was introduced into the medium. The cultures were then incubated at 37° C., 5% CO2, and 95% relative humidity (standard cell culture conditions) for 24 h. The culture medium was assayed for the pro-inflammatory cytokine interleukin-6 (IL-6) and after washing to remove the AP formulation, the viability of the culture was determined by the method described in Example 2.\nas §1, with “hours.” for “h.”, “MTT assay.” for “Thiazoyl blue (MTT) assay (Mosmann, T. J. Immunol. Methods 65, p55 (1983).”, “ELISA assay (R&D” for “Immunoassay (Quantikine, R&D”"}, "interleukin-6 (IL-6)": {"tested_on": "interleukin-6 (IL-6)", "test": "Skin organotypic culture analysis: AP-induced IL-6 release into the medium", "details": "for IL-6 release (mean ± SD): 24 h, Nil 21.5, AP 57.1", "experimental": "as §1, §2\nas §1, with “hours.” for “h.”, “MTT assay.” for “Thiazoyl blue (MTT) assay (Mosmann, T. J. Immunol. Methods 65, p55 (1983).”, “ELISA assay (R&D” for “Immunoassay (Quantikine, R&D”"}, "[2]": {"tested_on": "Human foreskin keratinocytes", "test": "Keratinocyte proliferation analysis (DNA content per well, Pico Green)", "details": "for DNA: 4 days, control (0 μM) 3.5", "experimental": "Human foreskin keratinocytes (passage 3) were seeded at 4000 cells/well in 96 well plates in Keratinocyte Growth Medium (abbreviated to KGM) containing 0.03 mM calcium and grown for 3 days at 37° C. The cells were then treated with PPAR ligands in KGM containing 0.03 mM calcium for 4 days prior to harvest. Stock solutions of PPAR ligands were dissolved in dimethylsulphoxide (DMSO) and diluted in KGM before adding to the cells. […] The harvested cells were washed 3× in phosphate buffered saline (PBS) and extracted in 1% Triton X100, 50 mM (tris[hydroxymethyl]aminomethane) (Tris) pH 8.0 plus protease inhibitors pepstatin and leupeptin (100 μl/well). The extract was assayed for DNA content using the Pico Green DNA assay (Molecular Probes, Inc.).\nCultured keratinocytes were treated with cis-9-trans-11 conjugated linoleic acid (CT-CLA) for 4 days. The cells were extracted with Tris-1% Triton X100 and the DNA content per well was determine by the Pico Green assay in accordance with the above described procedure."}}}
{"smiles": "CC\\C=C/C=C/C=C/C=C\\CCCCCCCC(=O)O", "note": "[cis parinaric acid, cis-parinaric acid]", "values": [{"measurement": "Culture viability", "setting": "[1]", "value": "not significantly different"}, {"measurement": "AP-induced IL-6 release", "setting": "interleukin-6 (IL-6); 1-100 μM, Dunnet's test p<0.05", "value": "significantly decrease"}, {"measurement": "IL-6 release (mean ± SD)", "setting": "interleukin-6 (IL-6); Table 14: 1.0 μM (+ AP)", "value": 26.8}, {"measurement": "IL-6 release (mean ± SD)", "setting": "interleukin-6 (IL-6); Table 14: 10.0 μM (+ AP)", "value": 23.3}, {"measurement": "IL-6 release (mean ± SD)", "setting": "interleukin-6 (IL-6); Table 14: 100.0 μM (+ AP)", "value": 25.7}, {"measurement": "keratinocyte DNA synthesis activity, statement", "setting": "[2]; Example 12: 10 and 20 μM, 1 way ANOVA, p<0.05", "value": "significantly reduce"}, {"measurement": "DNA", "setting": "[2]; Table 13: 1 μM", "value": 3.3, "unit": "ng/well"}, {"measurement": "DNA", "setting": "[2]; Table 13: 5 μM", "value": 4.1, "unit": "ng/well"}, {"measurement": "DNA", "setting": "[2]; Table 13: 10 μM", "value": 2.6, "unit": "ng/well"}, {"measurement": "DNA", "setting": "[2]; Table 13: 20 μM", "value": 1.5, "unit": "ng/well"}]}
